From PMC3617838 (Journal of Experimental Botany, 2013)

How the values were obtained:
LTP3 (LTP3-GST) = biological target: T1, LTP3 (LTP3-GST) (Arabidopsis thaliana, UniProt Q9LLR7); assay: fluorescence titration; format: binding
T1 sequence (Q9LLR7 24-115): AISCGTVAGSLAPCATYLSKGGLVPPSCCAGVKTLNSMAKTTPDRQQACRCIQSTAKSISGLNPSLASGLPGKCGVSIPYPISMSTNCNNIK

[1] = biological target: T2, MYB96-His (Arabidopsis thaliana) (UniProt Q24JK1); assay: EMSA; details: EMSA as in Shi et al. 2012; buffer, salt, pH and temperature not stated
T2 sequence: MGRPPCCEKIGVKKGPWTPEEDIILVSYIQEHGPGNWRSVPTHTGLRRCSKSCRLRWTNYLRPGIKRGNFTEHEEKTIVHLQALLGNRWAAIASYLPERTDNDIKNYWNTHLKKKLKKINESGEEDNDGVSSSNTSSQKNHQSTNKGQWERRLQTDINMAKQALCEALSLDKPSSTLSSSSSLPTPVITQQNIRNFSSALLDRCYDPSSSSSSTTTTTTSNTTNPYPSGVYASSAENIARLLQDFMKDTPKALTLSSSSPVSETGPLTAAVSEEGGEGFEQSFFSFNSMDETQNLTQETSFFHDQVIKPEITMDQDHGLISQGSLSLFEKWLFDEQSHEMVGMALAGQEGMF

Row | Kd (LTP3 (LTP3-GST)) [µM] | Molecule | binding [1]
1 | 9.8 ± 4.7 | Cc1ccc(Nc2ccc3cc(S(=O)(=O)O)ccc3c2)cc1 [TNS, 2-p-toluidinonaphthalene-6-sulphonate] | 
2 |  | CCACAGTTAATTAAAAGCAGATGAAAGGTGGTCCAATGGAAAAGGAGAATGTGATTGGGCTAGTTGGGAGAGTTCTGATGTCTAGTGTTGGGTACACGTGTCCGTCAGTTACACA (double strand) [LTP3 promoter XY] | binds
